In general, IC50 refers to the point on the concentration scale where inhibition reaches its midpoint.

Each structure is given as a SMILES string.

The values that follow come from patent publication US9649292B2, “Method for treating prostate cancer and/or gastrointestinal cancer” (King Fahd University of Petroleum and Minerals, priority 2015, dated 2017).

The test system of data set [1] is PC3 cells. The settings on record: cited from earlier work.
Data set [2] has as its system SGC7901 cells. To be noted: cited from earlier work; for cytotoxicity with respect to cisplatin: SGC7901 cells.
Data set [3] has as its system PC3 cells. The data set can be described thus: MTT assay for antiproliferative effects at fixed concentration. The class given is cell-based, human. To be noted: PC3, 10 μM, 24 and 72 h. As for the experimental part:
(§1) An MTT assay was used to obtain the number of living cells in the sample. Human gastric cancer SGC7901 and prostate cancer PC3 cells were seeded on 96-well plates at a predetermined optimal cell density, i.e. ca. 6,000 cells/100 μL per well in 96-well plates, to ensure exponential growth in the duration of the assay. After 24 h pre-incubation, the growth medium was replaced with the experimental medium containing the appropriate drug, using one of gold(III) compounds 1, 2 and 3 or a control using water. Six duplicate wells were set up for each sample, and cells untreated with drug served as a control. In one set of culture plates, human gastric cancer SGC7901 and human prostate PC3 cells were treated with 10 μM compounds 1, 2 and 3 as the drug and the control (water) for 24, 48 and 72 h. In other sets, the compounds 1, 2 and 3 with different concentration, i.e. 10, 20 and 30 μM, were employed to determine the growth inhibitory effect for both PC3 and SGC7901cells separately. After incubation, 10 μL MTT (6 g/L, Sigma) was added to each well and the incubation was continued for 4 h at 37° C. After removal of the medium, MTT stabilization solution [dimethylsulfoxide (DMSO): ethanol (C2H5OH)=1:1 in v/v ratio] was added to each well, and shaken for 10 min until all crystals were dissolved. Then, the optical density was detected in a micro plate reader at 550 nm wavelength using an Enzyme-Linked Immuno-Sorbent Assay (ELISA) reader. After being treated with gold(III) complexes 1, 2 and 3, the cell viability was examined by MTT assay. Each assay was performed in triplicate. An MTT assay for the inhibitory effect has been used for compounds 1, 2 and 3 against PC3 and SGC7901 cells. These cells were treated with various concentrations of compounds 1, 2 and 3 for 24-72 h.

Data set [4] deals with SGC7901 cells. Described as above. The class given is cell-based, human. To be noted: SGC7901, 10 μM, 24 and 72 h. As for the experimental part: as §1
A short description of data set [5]: Cyclic voltammetry in phosphate buffer. The class given is physicochemical. The settings on record: phosphate buffer pH 7.4, platinum electrode, 50 mV/s, 1.0 mM. The procedure:
The electrochemical experiments were performed at room temperature using a potentiostat (SP-300, Bio-Logic Science Instruments) controlled by EC-Lab v10.34 software package. The electrochemical experiments were performed at room temperature. All the measurements were performed on solutions de-aerated by bubbling ultra-pure nitrogen for 15 min. The values of reduction potential here reported were measured against a saturated calomel electrode (SCE). The cyclic voltammetry of the compounds 1, 2 and 3 were measured at scan rate of 50 mV/s on a reference buffer (40 mM phosphate, 4 mM NaCl, pH 7.4) using platinum as working electrode and graphite as a counter electrode with a concentration of 1.0 mM at room temperature. Ferrocene was used as pseudo reference to calibrate the working electrode. The couple FeIII/II formal potential of ferrocene occur at E^o/=+0.44 V (vs SCE) in 0.1 MBu4NPF6 solution in CH3CN solvent which is similar to the report value under the same experimental condition [Hans J, Beckmann A, Kruger H-J (1999) Stabilization of Copper(III) ions with deprotonated hydroxyiminoamide ligands: syntheses, structures, and electronic properties of Copper(III) and Copper(III) complexes. Eur J Inorg Chem 1:163-172—incorporated herein by reference in its entirety]. Conversion to values vs ENH was obtained upon adding +0.24 V to the corresponding SCE values.
Gold(III) complexes 1, 2 and 3 show one irreversible reduction process in which the controlled potential coulometry involves three electrons per mole. The occurrence of Au(III)/Au(0) reduction is visually indicated by the appearance of a thin gold layer deposited on the platinum electrode surface after exhaustive electrolysis (Ew, −0.7 V).

The nature of data set [6]: Stability by 1H and 13C NMR in D2O and DMSO-d6/D2O. The settings on record: DMSO-d6/D2O (2/1 v/v), room temperature. The class given is physicochemical. As for the experimental part:
The stability of complexes 1, 2 and 3 were tested in water as well as in a mixture of solvents i.e. DMSO/water (2/1 in v/v ratio) by ^1H and ^13C NMR measurements. To investigate the structural stability of the complexes, NMR spectra of the complexes dissolved in D2O; and in mixed DMSO-d6/D2O (2/1 in v/v ratio) solution were obtained just after dissolution, 24 h and 1 week at room temperature in mixed DMSO-d6/D2O and at 37° C. in D2O. At least 20 mg of complexes 1, 2 and 3 in 1 mL D2O at 37° C.; and in 1 mL DMSO-d6/D2O (2/1:v/v) at room temperature were subjected to ^1H and ^13C NMR measurements and followed by their spectral analysis. Immediately after dissolution of complexes 1, 2 and 3 in the respective solvents and duplicate samples were then stored at room temperature and 37° C., respectively, and analyzed again after 24 h and 1 week in order to determine stability of complexes. Since the complexes were not used beyond a week after dissolution, so NMR measurements were limited to one week.
NMR spectra of the complexes were obtained upon immediate dissolution to serve as reference spectra and later at 24 h and after 7 days at 37° C. in D2O and at room temperature in mixed DMSO-d6/D2O in order to determine their stability. […] For example, FIGS. 12A-B and 13A-B illustrated, respectively, the ^1H and ^13C NMR profiles of the compound 1 at just after mixing and after 7 days.

Data set [7] has as its system chronic lymphocytic leukemia cells (CLL). To be noted: cited from earlier work.
Data set [8] has as its system PC3 cells. The data set can be described thus: In vitro cytotoxic MTT assay, IC50. The class given is cell-based, human. The settings on record: 72 h exposure. As for the experimental part: (§2) Human prostate PC3 and gastric SGC7901 cells were used throughout the examples of the present disclosure. Cells were cultured in Dulbecco's Modified Eagle Medium (DMEM) supplemented with 10% fetal calf serum (FCS), penicillin (100 kU L^−1) and streptomycin (0.1 g L^−1) at 37° C. in a 5% CO2-95% air atmosphere. Human gastric SGC7901 cells and prostate PC3 were incubated with these compounds at fixed concentrations or with water as a control to assess the inhibitory effect on cell growth. […] The cell survival versus drug concentration is plotted. Cytotoxicity was evaluated in vitro with reference to the IC50 value. The half maximal inhibitory concentration (IC50) is a measure of the effectiveness of a compound to inhibit biological or biochemical functions. According to the FDA, IC50 represents the concentration of a drug/compound/complex that is required for 50% inhibition in vitro. It is evaluated from the survival curves as the concentration needed for a 50% reduction of survival. IC50 values are expressed in μM. The IC50 values were calculated from dose-response curves obtained in replicate experiments.
(§3) The in vitro cytotoxic effect of mixed ligand gold(III) diamine complexes against androgen-resistant prostate PC3 and human gastric SGC7901 cancer cells were studied using MTT assay. […]
(In general: Formazan colour is commonly taken as a measure of viable cells.)

Data set [9] relates to SGC7901 cells. The data set can be described thus: In vitro cytotoxic MTT assay, IC50. The class given is cell-based, human. To be noted: 72 h exposure. As for the experimental part:
as §2, §3

For the molecule `NCCN.NCCN.[Au+3].[Cl-].[Cl-].[Cl-]` [[Au(en)2]Cl3], the “cytotoxic effect compared to cisplatin” value with PC3 cells [1] is listed as “comparable to that of cisplatin”. Moreover, in the data set on SGC7901 cells [2], the “cytotoxicity with respect to cisplatin” value was “slightly lower cytotoxicity”.
For the molecule `NCCN.N[C@@H]1CCCC[C@H]1N.[Cl][Au]([Cl])[Cl]` (racemic) [Complex 2, trans-(±)-1,2-diaminocyclohexane ethylenediamine gold(III) chloride], the “order of time dependent antiproliferative effect” value (“order” below) in the data set with PC3 cells [3] and with SGC7901 cells [4] was “complex 1>complex 3>complex 2” each time. In addition, the “Ep, peak potential for reduction vs. ENH” value in data set [5] came to 0.46 V.
Turning to `NCCN.N[C@H]1CCCC[C@@H]1N.[Cl][Au]([Cl])[Cl]` [Complex 3, (S,S)-(+)-1,2-diaminocyclohexane ethylenediamine gold(III) chloride], the “order” value with PC3 cells [3] and in the data set with SGC7901 cells [4] was “complex 1>complex 3>complex 2” throughout. The “dissociation of ethylenediamine (en) after 7 days” value in data set [6] worked out at 25%. Further, the “Ep, peak potential for reduction vs. ENH” value in data set [5] was 0.51 V.
Turning to `NCCN.[Au+3].[Cl-].[Cl-].[Cl-]` [[(en)AuCl2]Cl], the “lower cytotoxicity as compared to cisplatin” value in the data set with PC3 cells [1] is reported as 7-9 fold. Further, the “cytotoxicity with respect to cisplatin” value with SGC7901 cells [2] is reported as “almost two fold more cytotoxic”. The “cytotoxicity profile compared to cisplatin” value in data set [7] is “comparable to cisplatin”.
For the molecule `N.N.[Cl][Pt][Cl]` [Cisplatin], the IC50 came to 1100 nM in the data set on PC3 cells [8] and 7.3 µM with SGC7901 cells [9]. In addition, the “intrinsic resistance of SGC7901 relative to PC3 cells” value in the data set on SGC7901 cells [2] (SGC7901 vs PC3) was 7-8 fold.
In the case of `NCCN.N[C@@H]1CCCC[C@@H]1N.[Cl][Au]([Cl])[Cl]` [Complex 1, cis-1,2-diaminocyclohexane ethylenediamine gold(III) chloride], the “order” value in the data set on PC3 cells [3] and with SGC7901 cells [4] was “complex 1>complex 3>complex 2” each time. Also, the “Ep, peak potential for reduction vs. ENH” value in data set [5] came out at 0.49 V.
